In patent publication US20260166128A1, “HUMAN AMYLIN ANALOG, AND DERIVATIVE THEREOF AND USE THEREOF” (priority 2022, published 2026):
pEC50: −log10 of the molar value. Numbered stars: 1 amine (or outer) side, 2 acyl side, 3 side chain; on linkers, the order of the positions; unused ones are H or OH. Bridge positions count the residues as written; N and C are the ends. Side chains are listed from the residue outwards. Peptide text beside a SMILES is read from it. * marks the point of attachment. C20 diacid = O=C(O)CCCCCCCCCCCCCCCCCCC(=O)*; γGlu = O=C(O)[C@H](CCC(=O)[*:2])N[*:1]; βAsp = O=C(O)[C@H](CC(=O)[*:2])N[*:1]; AEEA = NCCOCCOCC(=O)O

How the values were obtained:
[1] = Freeze-thaw stability of derivatives (freeze-thaw yield by liquid chromatography); type: physicochemical; details: for Dissolution property: appearance after dissolution at 0.2 mg/ml in 20 mM phosphate buffer solution (PB) (pH 7.0); for Freeze storage property: appearance after overnight storage at −20° C. and thawing to room temperature, 0.2 mg/ml in 20 mM PB (pH 7.0)
Description: The freeze-dried powder of the polypeptide analog derivative prepared in Example 1 was mixed with a buffer solution according to a mass-volume ratio of 0.2 mg/ml, the polypeptide was dissolved with 20 mM phosphate buffer solution (PB) (pH 7.0), the sample was stored at −20° C. for overnight storage, and then the sample was taken out to be restored to room temperature for thawing. During the experiment, property changes of the polypeptide after dissolution and freezing and thawing were observed and recorded respectively, and concentrations of the polypeptide before and after the freezing and thawing were detected by the following liquid chromatography method: Materials and equipment: high-performance liquid chromatographic instrument (Agilent 1200), ultrapure water (18.2 MΩ self-manufactured ultrapure water), acetonitrile (HPLC grade), and trifluoroacetic acid (HPLC grade); and reversed-phase chromatographic column: […] A sample to be tested was centrifuged at 10,000 rpm and 4° C. for 3 minutes, and a supernatant was taken and added into a liquid-phase sample injection bottle. […] A freeze-thaw yield was calculated by the following formula: freeze-thaw yield=concentration of polypeptide after the freezing and thawing/concentration of polypeptide before the freezing and thawing.

human amylin receptor = biological target: T1, human amylin receptor (Homo sapiens, UniProt O60896+P30988); assay: Luciferase assay of amylin derivatives in amylin receptor/CRE-luc CHO cell line; type: cell-based; details: CHO-K1/Ga15/AMY3 CRE-luc cells, 24 hours incubation, F12 medium containing 10% FBS; read-out: EC50
T1 construct: host or cells: CHO-K1/Ga15/AMY3 cells, further stably transfected with a CRE-luciferase plasmid
T1 sequence (P30988 25-474): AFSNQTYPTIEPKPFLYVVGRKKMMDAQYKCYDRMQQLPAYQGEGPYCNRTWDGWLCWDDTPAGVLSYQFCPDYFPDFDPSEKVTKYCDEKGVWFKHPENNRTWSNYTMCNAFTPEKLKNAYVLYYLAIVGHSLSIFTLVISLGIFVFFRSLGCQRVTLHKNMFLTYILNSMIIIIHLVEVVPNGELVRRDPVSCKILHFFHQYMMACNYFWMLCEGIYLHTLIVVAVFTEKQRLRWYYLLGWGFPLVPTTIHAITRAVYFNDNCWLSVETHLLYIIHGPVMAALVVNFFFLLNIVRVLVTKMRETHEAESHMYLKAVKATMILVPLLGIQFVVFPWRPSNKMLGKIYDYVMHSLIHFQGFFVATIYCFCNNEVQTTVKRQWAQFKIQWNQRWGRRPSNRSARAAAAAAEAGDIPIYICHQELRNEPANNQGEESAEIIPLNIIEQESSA
T1 sequence (O60896 24-148 partner): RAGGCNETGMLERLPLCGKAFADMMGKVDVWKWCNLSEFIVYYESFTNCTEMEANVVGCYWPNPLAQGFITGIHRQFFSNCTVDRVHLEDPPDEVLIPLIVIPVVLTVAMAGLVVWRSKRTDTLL
Description: The experiment was intended to detect the activity or efficacy of the amylin derivatives on a human amylin receptor in vitro by luciferase assay.
50 μL of growth medium (F12 medium containing 10% FBS) was added into each well of a white 96-well plate, and the stably transfected amylin/CRE-lue CHO cells were inoculated into the white 96-well plate at a density of about 20,000 cells/well for activity determination.

Compound	Dissolution property [1]	Freeze storage property [1]	pEC50 (human amylin receptor)
CC[C@H](C)[C@H](NC(=O)[C@@H]1CCCN1C(=O)CNC(=O)[C@H](CC(C)C)NC(=O)[C@H](CCCCNC(=O)COCCOCCNC(=O)COCCOCCNC(=O)CC[C@H](NC(=O)CCCCCCCCCCCCCCCCCCC(=O)O)C(=O)O)NC(=O)[C@H](CC(N)=O)NC(=O)[C@H](CO)NC(=O)[C@H](CO)NC(=O)[C@H](Cc1c[nH]cn1)NC(=O)[C@H](CCCNC(=N)N)NC(=O)[C@H](CC(C)C)NC(=O)[C@H](Cc1ccccc1)NC(=O)[C@H](CCC(=O)O)NC(=O)[C@H](C)NC(=O)[C@H](CC(C)C)NC(=O)[C@H](CCCNC(=N)N)NC(=O)[C@H](CCC(N)=O)NC(=O)[C@@H](NC(=O)[C@H](C)NC(=O)[C@@H]1CSSC[C@H](NC(=O)[C@@H](N)CCCNC(=N)N)C(=O)N[C@@H](CC(N)=O)C(=O)N[C@@H]([C@@H](C)O)C(=O)N[C@@H](C)C(=O)N[C@@H]([C@@H](C)O)C(=O)N1)[C@@H](C)O)C(=O)N[C@@H](CC(C)C)C(=O)N1CCC[C@H]1C(=O)N1CCC[C@H]1C(=O)N[C@H](C(=O)N[C@@H](CC(N)=O)C(=O)N[C@H](C(=O)NCC(=O)N[C@@H](CO)C(=O)N[C@@H](CC(N)=O)C(=O)N[C@H](C(=O)N1CCC[C@H]1C(N)=O)[C@@H](C)O)C(C)C)[C@@H](C)O [PD002] (H-RCNTATCATQRLAEFLRHSSNK([AEEA-AEEA-γGlu-C20 diacid])LGPILPPTNVGSNTP-NH2; disulfide 2-7 (inferred); N-terminus assumed)	Clear	Clear	9.92
CC[C@H](C)[C@H](NC(=O)[C@@H]1CCCN1C(=O)CNC(=O)[C@H](CCCCNC(=O)COCCOCCNC(=O)COCCOCCNC(=O)CC[C@H](NC(=O)CCCCCCCCCCCCCCCCCCC(=O)O)C(=O)O)NC(=O)[C@H](CC(N)=O)NC(=O)[C@H](CC(N)=O)NC(=O)[C@H](CO)NC(=O)[C@H](CO)NC(=O)[C@H](Cc1c[nH]cn1)NC(=O)[C@H](CCCNC(=N)N)NC(=O)[C@H](CC(C)C)NC(=O)[C@H](Cc1ccccc1)NC(=O)[C@H](CCC(=O)O)NC(=O)[C@H](C)NC(=O)[C@H](CC(C)C)NC(=O)[C@H](CCCNC(=N)N)NC(=O)[C@H](CCC(N)=O)NC(=O)[C@@H](NC(=O)[C@H](C)NC(=O)[C@@H]1CSSC[C@H](NC(=O)[C@@H](N)CCCNC(=N)N)C(=O)N[C@@H](CC(N)=O)C(=O)N[C@@H]([C@@H](C)O)C(=O)N[C@@H](C)C(=O)N[C@@H]([C@@H](C)O)C(=O)N1)[C@@H](C)O)C(=O)N[C@@H](CC(C)C)C(=O)N1CCC[C@H]1C(=O)N1CCC[C@H]1C(=O)N[C@H](C(=O)N[C@@H](CC(N)=O)C(=O)N[C@H](C(=O)NCC(=O)N[C@@H](CO)C(=O)N[C@@H](CC(N)=O)C(=O)N[C@H](C(=O)N1CCC[C@H]1C(N)=O)[C@@H](C)O)C(C)C)[C@@H](C)O [PD003] (H-RCNTATCATQRLAEFLRHSSNNK([AEEA-AEEA-γGlu-C20 diacid])GPILPPTNVGSNTP-NH2; disulfide 2-7 (inferred); N-terminus assumed)	Clear	Clear	9.85
CC[C@H](C)[C@H](NC(=O)[C@@H]1CCCN1C(=O)[C@H](CCCNC(=N)N)NC(=O)[C@H](CC(C)C)NC(=O)[C@H](CC(N)=O)NC(=O)[C@H](CC(N)=O)NC(=O)[C@H](CO)NC(=O)[C@H](CO)NC(=O)[C@H](Cc1c[nH]cn1)NC(=O)[C@H](CCCNC(=N)N)NC(=O)[C@H](CC(C)C)NC(=O)[C@H](Cc1ccccc1)NC(=O)[C@H](CC(=O)O)NC(=O)[C@H](C)NC(=O)[C@H](CC(C)C)NC(=O)[C@H](CCCNC(=N)N)NC(=O)[C@H](CCC(N)=O)NC(=O)[C@@H](NC(=O)[C@H](C)NC(=O)[C@@H]1CSSC[C@H](NC(=O)[C@H](CCCNC(=N)N)NC(=O)CC[C@H](NC(=O)CCCCCCCCCCCCCCCCCCC(=O)O)C(=O)O)C(=O)N[C@@H](CC(N)=O)C(=O)N[C@@H]([C@@H](C)O)C(=O)N[C@@H](C)C(=O)N[C@@H]([C@@H](C)O)C(=O)N1)[C@@H](C)O)C(=O)N[C@@H](CC(C)C)C(=O)N1CCC[C@H]1C(=O)N1CCC[C@H]1C(=O)N[C@H](C(=O)N[C@@H](CC(N)=O)C(=O)N[C@H](C(=O)NCC(=O)N[C@@H](CO)C(=O)N[C@@H](CC(N)=O)C(=O)N[C@H](C(=O)N1CCC[C@H]1C(N)=O)[C@@H](C)O)C(C)C)[C@@H](C)O [PD197] ({C20 diacid-γGlu}-RCNTATCATQRLADFLRHSSNNLRPILPPTNVGSNTP-NH2; disulfide 2-7 (inferred))			10.60
{C20 diacid-γGlu}-KGGGGRCNTATCATQRLADFLRHSSNNLRPILPPTNVGSNTP-NH2 (disulfide 7-12 (inferred)) [PD198]			10.54

Continued by rising pEC50 (human amylin receptor), values first:

Dissolution property [1]	Freeze storage property [1]	pEC50 (human amylin receptor)	Compound
Clear	Clear	10.38	CC[C@H](C)[C@H](NC(=O)[C@@H]1CCCN1C(=O)CNC(=O)[C@H](CC(C)C)NC(=O)[C@H](CC(N)=O)NC(=O)[C@H](CCCCNC(=O)COCCOCCNC(=O)COCCOCCNC(=O)CC[C@H](NC(=O)CCCCCCCCCCCCCCCCCCC(=O)O)C(=O)O)NC(=O)[C@H](CO)NC(=O)[C@H](CO)NC(=O)[C@H](Cc1c[nH]cn1)NC(=O)[C@H](CCCNC(=N)N)NC(=O)[C@H](CC(C)C)NC(=O)[C@H](Cc1ccccc1)NC(=O)[C@H](CCC(=O)O)NC(=O)[C@H](C)NC(=O)[C@H](CC(C)C)NC(=O)[C@H](CCCNC(=N)N)NC(=O)[C@H](CCC(N)=O)NC(=O)[C@@H](NC(=O)[C@H](C)NC(=O)[C@@H]1CSSC[C@H](NC(=O)[C@@H](N)CCCNC(=N)N)C(=O)N[C@@H](CC(N)=O)C(=O)N[C@@H]([C@@H](C)O)C(=O)N[C@@H](C)C(=O)N[C@@H]([C@@H](C)O)C(=O)N1)[C@@H](C)O)C(=O)N[C@@H](CC(C)C)C(=O)N1CCC[C@H]1C(=O)N1CCC[C@H]1C(=O)N[C@H](C(=O)N[C@@H](CC(N)=O)C(=O)N[C@H](C(=O)NCC(=O)N[C@@H](CO)C(=O)N[C@@H](CC(N)=O)C(=O)N[C@H](C(=O)N1CCC[C@H]1C(N)=O)[C@@H](C)O)C(C)C)[C@@H](C)O [PD001] (H-RCNTATCATQRLAEFLRHSSK([AEEA-AEEA-γGlu-C20 diacid])NLGPILPPTNVGSNTP-NH2; disulfide 2-7 (inferred); N-terminus assumed)
		10.60	CC[C@H](C)[C@H](NC(=O)[C@@H]1CCCN1C(=O)[C@H](CCCCN)NC(=O)[C@H](CC(C)C)NC(=O)[C@H](CC(N)=O)NC(=O)[C@H](CC(N)=O)NC(=O)[C@H](CO)NC(=O)[C@H](CO)NC(=O)[C@H](Cc1c[nH]cn1)NC(=O)[C@H](CCCNC(=N)N)NC(=O)[C@H](CC(C)C)NC(=O)[C@H](Cc1ccccc1)NC(=O)[C@H](CC(=O)O)NC(=O)[C@H](C)NC(=O)[C@H](CC(C)C)NC(=O)[C@H](CCCNC(=N)N)NC(=O)[C@H](CCC(N)=O)NC(=O)[C@@H](NC(=O)[C@H](C)NC(=O)[C@@H]1CSSC[C@H](NC(=O)[C@H](CCCCN)NC(=O)COCCOCCNC(=O)COCCOCCNC(=O)C[C@H](NC(=O)CCCCCCCCCCCCCCCCCCC(=O)O)C(=O)O)C(=O)N[C@@H](CC(N)=O)C(=O)N[C@@H]([C@@H](C)O)C(=O)N[C@@H](C)C(=O)N[C@@H]([C@@H](C)O)C(=O)N1)[C@@H](C)O)C(=O)N[C@@H](CC(C)C)C(=O)N1CCC[C@H]1C(=O)N1CCC[C@H]1C(=O)N[C@H](C(=O)N[C@@H](CC(N)=O)C(=O)N[C@H](C(=O)NCC(=O)N[C@@H](CO)C(=O)N[C@@H](CC(N)=O)C(=O)N[C@H](C(=O)N1CCC[C@H]1C(N)=O)[C@@H](C)O)C(C)C)[C@@H](C)O [PD195] ({C20 diacid-βAsp-AEEA-AEEA}-KCNTATCATQRLADFLRHSSNNLKPILPPTNVGSNTP-NH2; disulfide 2-7 (inferred))
